Tested on: MV-4-11 cells
Assay: Gene expression microarray analysis (Affymetrix PrimeView) and GSEA
Assay type: cell-based, human
Set-up: RFU PODN (11730768_x_at) / Fold change /veh PODN (11730768_x_at) / RFU LINC00158 (11744669_a_at) / Fold change /veh LINC00158 (11744669_a_at) / RFU DUSP10 (11751237_a_at) / Fold change /veh DUSP10 (11751237_a_at) / RFU ID3 (11757404_x_at) / Fold change /veh ID3 (11757404_x_at) / RFU PLEKHG5 (11737974_s_at) / Fold change /veh PLEKHG5 (11737974_s_at) / RFU LRRC4B (11730491_at) / Fold change /veh LRRC4B (11730491_at) / RFU GIMAP4 (11747438_a_at) / Fold change /veh GIMAP4 (11747438_a_at) / RFU KRT8 (11758183_x_at) / Fold change /veh KRT8 (11758183_x_at) / RFU CNN1 (11734310_a_at) / Fold change /veh CNN1 (11734310_a_at) / RFU VPS37D (11726825_at) / Fold change /veh VPS37D (11726825_at) / RFU C10orf10 (11716522_x_at) / Fold change /veh C10orf10 (11716522_x_at) / RFU KIR2DL2 /// KIR2DL4 /// KIR2DL5A /// KIR2DL5B /// KIR2DS1 /// KIR2DS2 /// KIR2DS3 /// KIR2DS4 /// KIR3DL3 /// KIR3DL3 /// KIR3DS1 (11738374_at) / Fold change /veh KIR2DL2 /// KIR2DL4 /// KIR2DL5A /// KIR2DL5B /// KIR2DS1 /// KIR2DS2 /// KIR2DS3 /// KIR2DS4 /// KIR3DL3 /// KIR3DL3 /// KIR3DS1 (11738374_at) / RFU C1QL1 (11718748_at) / Fold change /veh C1QL1 (11718748_at) / RFU TMPRSS4 (11747572_a_at) / Fold change /veh TMPRSS4 (11747572_a_at) / RFU HAMP (11756126_x_at) / Fold change /veh HAMP (11756126_x_at) / RFU RNFT2 (11725882_a_at) / Fold change /veh RNFT2 (11725882_a_at) / RFU NR4A2 (11747474_a_at) / Fold change /veh NR4A2 (11747474_a_at) / RFU ABCC12 (11746883_a_at) / Fold change /veh ABCC12 (11746883_a_at) / RFU TMEM136 (11760407_x_at) / Fold change /veh TMEM136 (11760407_x_at) / RFU CLDN22 /// WWC2 (11732394_at) / Fold change /veh CLDN22 /// WWC2 (11732394_at) / RFU HLA-DPB1 (11760878_x_at) / Fold change /veh HLA-DPB1 (11760878_x_at) / RFU SPINT1 (11716480_a_at) / Fold change /veh SPINT1 (11716480_a_at) / RFU GAP43 (11754022_s_at) / Fold change /veh GAP43 (11754022_s_at) / RFU A4GNT (11735810_at) / Fold change /veh A4GNT (11735810_at) / RFU PRB3 (11715151_x_at) / Fold change /veh PRB3 (11715151_x_at) / RFU TUBB4B (11761932_at) / Fold change /veh TUBB4B (11761932_at) / RFU CAPN14 (11732068_a_at) / Fold change /veh CAPN14 (11732068_a_at) / RFU TMCC2 (11721928_a_at) / Fold change /veh TMCC2 (11721928_a_at) / RFU IRGQ (11745062_a_at) / Fold change /veh IRGQ (11745062_a_at) / RFU FAM174B (11720279_a_at) / Fold change /veh FAM174B (11720279_a_at) / RFU TMPRSS4 (11748680_a_at) / Fold change /veh TMPRSS4 (11748680_a_at) / RFU FAM212B (11763350_a_at) / Fold change /veh FAM212B (11763350_a_at) / RFU PLEKHG5 (11743358_a_at) / Fold change /veh PLEKHG5 (11743358_a_at) / RFU ZSCAN30 (11745921_a_at) / Fold change /veh ZSCAN30 (11745921_a_at) / RFU CMKLR1 (11741424_a_at) / Fold change /veh CMKLR1 (11741424_a_at) / RFU LOC101060620 /// MAPK8IP1 (11723275_at) / Fold change /veh LOC101060620 /// MAPK8IP1 (11723275_at) / RFU SPTSSB (11747773_x_at) / Fold change /veh SPTSSB (11747773_x_at) / RFU PRSS12 (11739890_at) / Fold change /veh PRSS12 (11739890_at) / RFU BIN1 (11741810_x_at) / Fold change /veh BIN1 (11741810_x_at) / RFU WNT11 (11732464_a_at) / Fold change /veh WNT11 (11732464_a_at) / RFU C10orf10 (11716521_a_at) / Fold change /veh C10orf10 (11716521_a_at) / RFU C5orf56 (11738089_at) / Fold change /veh C5orf56 (11738089_at) / RFU CYB561 (11721691_x_at) / Fold change /veh CYB561 (11721691_x_at) / RFU ANKRD19P (11752326_a_at) / Fold change /veh ANKRD19P (11752326_a_at) / RFU OR2T12 /// OR2T33 /// OR2T8 (11738714_s_at) / Fold change /veh OR2T12 /// OR2T33 /// OR2T8 (11738714_s_at) / RFU VCAN (11748164_a_at) / Fold change /veh VCAN (11748164_a_at) / RFU JSRP1 (11732532_at) / Fold change /veh JSRP1 (11732532_at) / RFU KRTAP10-11 (11738290_x_at) / Fold change /veh KRTAP10-11 (11738290_x_at) / RFU MYO3A (11730013_a_at) / Fold change /veh MYO3A (11730013_a_at) / RFU EBF3 (11725865_a_at) / Fold change /veh EBF3 (11725865_a_at) / RFU CAMK2N1 (11719241_x_at) / Fold change /veh CAMK2N1 (11719241_x_at) / RFU C5orf56 (11738088_a_at) / Fold change /veh C5orf56 (11738088_a_at) / RFU OLFML3 (11715873_a_at) / Fold change /veh OLFML3 (11715873_a_at) / RFU LOC100653217 /// NTM (11731650_a_at) / Fold change /veh LOC100653217 /// NTM (11731650_a_at) / RFU MAPK11 (11762145_a_at) / Fold change /veh MAPK11 (11762145_a_at) / RFU FIZ1 (11724087_x_at) / Fold change /veh FIZ1 (11724087_x_at) / RFU OASL (11726364_x_at) / Fold change /veh OASL (11726364_x_at) / RFU SOX15 (11748057_x_at) / Fold change /veh SOX15 (11748057_x_at) / RFU CD79A (11719716_a_at) / Fold change /veh CD79A (11719716_a_at) / RFU HIST1H1D (11736915_at) / Fold change /veh HIST1H1D (11736915_at) / RFU CASKIN2 (11723855_a_at) / Fold change /veh CASKIN2 (11723855_a_at) / RFU LOC730098 (11760151_x_at) / Fold change /veh LOC730098 (11760151_x_at) / RFU OR4N2 (11742367_at) / Fold change /veh OR4N2 (11742367_at) / RFU PRRT2 (11749266_a_at) / Fold change /veh PRRT2 (11749266_a_at) / RFU SNX32 (11753110_a_at) / Fold change /veh SNX32 (11753110_a_at) / RFU CDHR5 (11726645_a_at) / Fold change /veh CDHR5 (11726645_a_at) / RFU RCAN1 (11760418_a_at) / Fold change /veh RCAN1 (11760418_a_at) / RFU FAM167A (11723789_a_at) / Fold change /veh FAM167A (11723789_a_at) / RFU FAM26E (11764081_at) / Fold change /veh FAM26E (11764081_at) / RFU ISYNA1 (11749810_s_at) / Fold change /veh ISYNA1 (11749810_s_at) / RFU ACY1 (11761880_at) / Fold change /veh ACY1 (11761880_at) / RFU 11764098_at / Fold change /veh 11764098_at / RFU SAMD14 (11745864_x_at) / Fold change /veh SAMD14 (11745864_x_at) / RFU NPB (11741838_a_at) / Fold change /veh NPB (11741838_a_at) / RFU TMPRSS6 (11731388_a_at) / Fold change /veh TMPRSS6 (11731388_a_at) / RFU KRTAP10-2 (11738614_at) / Fold change /veh KRTAP10-2 (11738614_at) / RFU ARHGAP8 /// PRR5-ARHGAP8 (11727945_x_at) / Fold change /veh ARHGAP8 /// PRR5-ARHGAP8 (11727945_x_at) / RFU KRTAP5-7 /// NADSYN1 (11734609_at) / Fold change /veh KRTAP5-7 /// NADSYN1 (11734609_at) / RFU RASL12 (11751679_a_at) / Fold change /veh RASL12 (11751679_a_at) / RFU CDKN2B (11736163_a_at) / Fold change /veh CDKN2B (11736163_a_at) / RFU PRF1 (11729649_at) / Fold change /veh PRF1 (11729649_at) / RFU, ZNF638 /// ZNF638-IT1 / Fold change vs veh, ZNF638 /// ZNF638-IT1 / RFU, PANK3 / Fold change vs veh, PANK3 / RFU, SH3YL1 / Fold change vs veh, SH3YL1 / RFU, ZEB2 / Fold change vs veh, ZEB2 / RFU, NRIP1 / Fold change vs veh, NRIP1 / RFU, PTTG1IP / Fold change vs veh, PTTG1IP / RFU, CAPN2 / Fold change vs veh, CAPN2 / RFU, MED14 / Fold change vs veh, MED14 / RFU, SNORA58 / Fold change vs veh, SNORA58 / RFU, C1orf63 / Fold change vs veh, C1orf63 / RFU, LRRFIP1 / Fold change vs veh, LRRFIP1 / RFU, NDUFAF7 / Fold change vs veh, NDUFAF7 / RFU, SLC12A2 / Fold change vs veh, SLC12A2 / RFU, IBTK / Fold change vs veh, IBTK / RFU, ESF1 / Fold change vs veh, ESF1 / Fold change vs veh, TMEM50B / RFU, TAOK1 / Fold change vs veh, TAOK1 / RFU, ACBD3 / Fold change vs veh, ACBD3 / RFU, TMA16 / Fold change vs veh, TMA16 / RFU, RWDD3 / Fold change vs veh, RWDD3 / RFU, BCAT1 / Fold change vs veh, BCAT1 / RFU, EDEM3 / Fold change vs veh, EDEM3 / RFU, TMEM33 / Fold change vs veh, TMEM33 / RFU, WDR75 / Fold change vs veh, WDR75 / RFU, AHCTF1 / Fold change vs veh, AHCTF1 / RFU, TFRC / Fold change vs veh, TFRC / RFU, ZDHHC17 / Fold change vs veh, ZDHHC17 / RFU, NOM1 / Fold change vs veh, NOM1 / RFU, ARL8B / Fold change vs veh, ARL8B / RFU, ZBTB11 / Fold change vs veh, ZBTB11 / RFU, TAMM41 / Fold change vs veh, TAMM41 / RFU, KIAA1704 /// LOC100996395 / Fold change vs veh, KIAA1704 /// LOC100996395 / RFU, ING1 / Fold change vs veh, ING1 / RFU, TRMT61B / Fold change vs veh, TRMT61B / RFU, FUBP3 / Fold change vs veh, FUBP3 / RFU, TP53 / Fold change vs veh, TP53 / RFU, TNKS2 / Fold change vs veh, TNKS2 / RFU, ZFP14 / Fold change vs veh, ZFP14 / RFU, ACTR2 / Fold change vs veh, ACTR2 / RFU, PPP3R1 / Fold change vs veh, PPP3R1 / RFU, PIK3R1 / Fold change vs veh, PIK3R1 / RFU, HNRNPA1 / Fold change vs veh, HNRNPA1 / RFU, RNF170 / Fold change vs veh, RNF170 / RFU, ZNF28 / Fold change vs veh, ZNF28 / RFU, RNGTT / Fold change vs veh, RNGTT / RFU, OGT / Fold change vs veh, OGT / RFU, BRD1 / Fold change vs veh, BRD1 / RFU, MARS / Fold change vs veh, MARS / RFU, ZNF655 / Fold change vs veh, ZNF655 / RFU, FAHD1 / Fold change vs veh, FAHD1 / RFU, BDP1 / Fold change vs veh, BDP1 / RFU, LRRCC1 / Fold change vs veh, LRRCC1 / RFU, ARID1A / Fold change vs veh, ARID1A / RFU, ZNF146 / Fold change vs veh, ZNF146 / RFU, ZNF330 / Fold change vs veh, ZNF330 / RFU, GPN3 / Fold change vs veh, GPN3 / RFU, C9orf123 / Fold change vs veh, C9orf123 / RFU, N4BP2L2 / Fold change vs veh, N4BP2L2 / RFU, ARFIP1 / Fold change vs veh, ARFIP1 / RFU, FAM179B / Fold change vs veh, FAM179B / RFU, BCL10 / Fold change vs veh, BCL10 / RFU, UHRF1BP1L / Fold change vs veh, UHRF1BP1L / RFU, BET1 / Fold change vs veh, BET1 / RFU, CNOT2 / Fold change vs veh, CNOT2 / RFU, ZNF268 / Fold change vs veh, ZNF268 / Fold change vs veh, ZNF507 / RFU, DGCR2 / Fold change vs veh, DGCR2 / RFU, WDSUB1 / Fold change vs veh, WDSUB1 / Fold change vs veh, HSP90B1 /// MIR3652 / RFU, ADSS / Fold change vs veh, ADSS / RFU, GK / Fold change vs veh, GK / RFU, ZNF148 / Fold change vs veh, ZNF148 / RFU, TAF9 / Fold change vs veh, TAF9 / RFU, SLC1A5 / Fold change vs veh, SLC1A5 / RFU, SLMO2 / Fold change vs veh, SLMO2 / RFU, ABCC4 / Fold change vs veh, ABCC4 / RFU, LOC101060439 /// RAP1B / Fold change vs veh, LOC101060439 /// RAP1B / RFU, RFX7 / Fold change vs veh, RFX7 / RFU, GTPBP10 / Fold change vs veh, GTPBP10 / RFU, CNEP1R1 / Fold change vs veh, CNEP1R1 / RFU, BIVM-ERCC5 /// ERCC5 / Fold change vs veh, BIVM-ERCC5 /// ERCC5 / RFU, ILF3 / Fold change vs veh, ILF3 / RFU 11762660_at / Fold change /veh 11762660_at / RFU VCAN (11757783_s_at) / Fold change /veh VCAN (11757783_s_at) / RFU DDX43 (11728927_at) / Fold change /veh DDX43 (11728927_at) / RFU KRT8 (11758188_x_at) / Fold change /veh KRT8 (11758188_x_at) / RFU NKD1 (11759106_at) / Fold change /veh NKD1 (11759106_at) / RFU SRD5A1 (11742802_a_at) / Fold change /veh SRD5A1 (11742802_a_at) / RFU TPSAB1 /// TPSB2 (11721975_s_at) / Fold change /veh TPSAB1 /// TPSB2 (11721975_s_at) / RFU GSTM3 (11746129_a_at) / Fold change /veh GSTM3 (11746129_a_at) / RFU IL23R (11737362_x_at) / Fold change /veh IL23R (11737362_x_at) / RFU TMEM51 (11727254_a_at) / Fold change /veh TMEM51 (11727254_a_at) / RFU PIWIL2 (11732686_x_at) / Fold change /veh PIWIL2 (11732686_x_at) / RFU ORM1 (11744905_x_at) / Fold change /veh ORM1 (11744905_x_at) / RFU CCDC152 (11743942_at) / Fold change /veh CCDC152 (11743942_at) / RFU ECM1 (11717891_a_at) / Fold change /veh ECM1 (11717891_a_at) / RFU IL23R (11748794_a_at) / Fold change /veh IL23R (11748794_a_at) / RFU TNFAIP8L3 (11732012_x_at) / Fold change /veh TNFAIP8L3 (11732012_x_at) / RFU MBOAT4 (11741988_at) / Fold change /veh MBOAT4 (11741988_at) / RFU 11764193_at / Fold change /veh 11764193_at / RFU TMEM53 (11763286_at) / Fold change /veh TMEM53 (11763286_at) / RFU MAGEB2 (11727129_at) / Fold change /veh MAGEB2 (11727129_at) / RFU TMEM200A (11744735_a_at) / Fold change /veh TMEM200A (11744735_a_at) / RFU CCDC152 (11751479_a_at) / Fold change /veh CCDC152 (11751479_a_at) / RFU FAM211A (11726209_a_at) / Fold change /veh FAM211A (11726209_a_at) / RFU RGS16 (11746705_a_at) / Fold change /veh RGS16 (11746705_a_at) / RFU VCAN (11755009_s_at) / Fold change /veh VCAN (11755009_s_at) / RFU RHOB (11743442_s_at) / Fold change /veh RHOB (11743442_s_at) / RFU RGS16 (11720943_a_at) / Fold change /veh RGS16 (11720943_a_at) / RFU RGS16 (11720944_at) / Fold change /veh RGS16 (11720944_at) / RFU, VPS4B / Fold change vs veh, VPS4B / RFU, CREB1 / Fold change vs veh, CREB1 / RFU, DNAJC13 / Fold change vs veh, DNAJC13 / RFU, GNAQ / Fold change vs veh, GNAQ / RFU, CDK5R1 / Fold change vs veh, CDK5R1 / RFU, ZRANB3 / Fold change vs veh, ZRANB3 / RFU, CUL4A / Fold change vs veh, CUL4A / RFU, CCNY / Fold change vs veh, CCNY / RFU, UFL1 / Fold change vs veh, UFL1 / RFU, COG3 / Fold change vs veh, COG3 / RFU, DIAPH2 / Fold change vs veh, DIAPH2 / RFU, SKA2 / Fold change vs veh, SKA2 / RFU, AFF3 / Fold change vs veh, AFF3 / RFU, LMF1 / Fold change vs veh, LMF1 / RFU, IPO11 / Fold change vs veh, IPO11 / RFU, DFFB / Fold change vs veh, DFFB / RFU, FOXP1 / Fold change vs veh, FOXP1 / RFU, CARD8 / Fold change vs veh, CARD8 / RFU, STRN3 / Fold change vs veh, STRN3 / RFU, ADK / Fold change vs veh, ADK / RFU, RASSF2 / Fold change vs veh, RASSF2 / RFU, WIPF1 / Fold change vs veh, WIPF1 / RFU, LARP1B / Fold change vs veh, LARP1B / RFU, RASA1 / Fold change vs veh, RASA1 / RFU, RB1 / Fold change vs veh, RB1 / RFU, PPFIA1 / Fold change vs veh, PPFIA1 / RFU, MAT2A / Fold change vs veh, MAT2A / RFU, CCT5 / Fold change vs veh, CCT5 / RFU, WDR92 / Fold change vs veh, WDR92 / RFU, CUX1 / Fold change vs veh, CUX1 / RFU, TTC7A / Fold change vs veh, TTC7A / RFU, TMEM135 / Fold change vs veh, TMEM135 / RFU, DEPTOR / Fold change vs veh, DEPTOR / RFU, CPM / Fold change vs veh, CPM / RFU, DNAJB6 / Fold change vs veh, DNAJB6 / RFU, CACNA2D3 / Fold change vs veh, CACNA2D3 / RFU, DTX4 / Fold change vs veh, DTX4 / RFU, TFCP2 / Fold change vs veh, TFCP2 / RFU, GMCL1 /// GMCL1P1 / Fold change vs veh, GMCL1 /// GMCL1P1 / RFU, AEBP2 / Fold change vs veh, AEBP2 / RFU, SNHG1 /// SNORD22 /// SNORD25 /// SNORD26 /// SNORD27 /// SNORD28 /// SNORD29 /// SNORD31 / Fold change vs veh, SNHG1 /// SNORD22 /// SNORD25 /// SNORD26 /// SNORD27 /// SNORD28 /// SNORD29 /// SNORD31 / Fold change (Aza/veh), C12orf56 (ProbeSet 11735607_a_at) / Fold change (ACY-1035/veh), C12orf56 (ProbeSet 11735607_a_at) / Fold change (Aza/veh), FGFR1OP (ProbeSet 11751329_s_at) / Fold change (ACY-1035/veh), FGFR1OP (ProbeSet 11751329_s_at) / Fold change (Aza/veh), VPS36 (ProbeSet 11739960_a_at) / Fold change (ACY-1035/veh), VPS36 (ProbeSet 11739960_a_at) / RFU SYPL1 (11715823_x_at) / Fold change /veh SYPL1 (11715823_x_at) / RFU IGFBP7 (11715501_s_at) / Fold change /veh IGFBP7 (11715501_s_at) / RFU REEP3 (11722064_at) / Fold change /veh REEP3 (11722064_at) / RFU IGLL1 (11728026_x_at) / Fold change /veh IGLL1 (11728026_x_at): dose or concentration left out as unconfirmed
Details: MV-4-11 cells, 48 hours

Nc1ccc(-c2cccs2)cc1NC(=O)c1ccc2c(c1)cc(C1CC1)n2CCN1CCOCC1 [ACY-1035]
Fold change /veh CAMK2N1 (11719241_x_at): 0.84

Source: paper PMC5218480 (PLoS ONE, 2017)
